From BindingDB's records for doi:10.3109/14756366.2011.651464 (Ege University, 2013)

Experiments:
Test in all cases: Esterase Activity Assay
Details in all cases: pH 7.4
Carbonic anhydrase 1 = Carbonic anhydrase 1 (Homo sapiens, UniProt P00915)
Carbonic anhydrase 2 = Carbonic anhydrase 2 (Homo sapiens, UniProt P00918)
Carbonic anhydrase 3 = molecular target: T1, Carbonic anhydrase 3 (Bos taurus, UniProt Q3SZX4)
T1 sequence (Q3SZX4 whole entry): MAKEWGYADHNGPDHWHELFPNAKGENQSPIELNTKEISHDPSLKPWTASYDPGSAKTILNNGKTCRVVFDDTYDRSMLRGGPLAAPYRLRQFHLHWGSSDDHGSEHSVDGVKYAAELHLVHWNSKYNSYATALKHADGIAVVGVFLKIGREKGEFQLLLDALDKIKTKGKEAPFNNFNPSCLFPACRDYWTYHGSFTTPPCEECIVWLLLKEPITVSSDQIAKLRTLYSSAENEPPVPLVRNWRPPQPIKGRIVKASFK

Carbonic anhydrase 4 = Carbonic anhydrase 4 (Homo sapiens, UniProt P22748)
Carbonic anhydrase 6 = Carbonic anhydrase 6 (Homo sapiens, UniProt P23280)
Carbonic anhydrase 6, sequence (P23280 whole entry): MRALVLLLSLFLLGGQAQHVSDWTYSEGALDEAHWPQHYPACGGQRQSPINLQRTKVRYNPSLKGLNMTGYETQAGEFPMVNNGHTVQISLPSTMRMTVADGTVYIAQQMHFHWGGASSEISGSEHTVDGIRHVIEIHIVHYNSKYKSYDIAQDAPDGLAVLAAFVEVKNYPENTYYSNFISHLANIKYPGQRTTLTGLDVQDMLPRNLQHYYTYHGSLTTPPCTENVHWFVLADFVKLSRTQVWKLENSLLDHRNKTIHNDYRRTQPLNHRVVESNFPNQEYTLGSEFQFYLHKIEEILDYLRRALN

Carbonic anhydrase 1, sequence (P00915 whole entry): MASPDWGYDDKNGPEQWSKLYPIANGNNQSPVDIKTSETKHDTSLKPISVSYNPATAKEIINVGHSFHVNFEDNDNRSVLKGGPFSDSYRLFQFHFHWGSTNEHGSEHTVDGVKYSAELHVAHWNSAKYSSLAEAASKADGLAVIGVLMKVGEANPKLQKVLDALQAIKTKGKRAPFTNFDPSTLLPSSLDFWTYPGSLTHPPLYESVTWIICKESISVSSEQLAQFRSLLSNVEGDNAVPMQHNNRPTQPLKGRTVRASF
Carbonic anhydrase 4, sequence (P22748 whole entry): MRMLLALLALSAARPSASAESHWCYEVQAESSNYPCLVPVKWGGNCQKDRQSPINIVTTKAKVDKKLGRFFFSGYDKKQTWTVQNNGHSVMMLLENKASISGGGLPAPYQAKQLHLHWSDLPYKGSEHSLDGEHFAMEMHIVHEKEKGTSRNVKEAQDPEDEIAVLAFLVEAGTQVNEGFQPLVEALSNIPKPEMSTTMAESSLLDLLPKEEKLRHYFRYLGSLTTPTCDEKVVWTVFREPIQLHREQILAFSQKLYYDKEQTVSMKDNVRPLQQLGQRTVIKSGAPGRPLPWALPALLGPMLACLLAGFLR

`Oc1cc(O)c2c(c1)O[C@H](c1ccc(O)c(O)c1)[C@H](O)C2` was tested, and the Ki (Carbonic anhydrase 1) was 2.32 µM, the Ki (Carbonic anhydrase 2) was 1.24 µM and the Ki (Carbonic anhydrase 3) was 8.93 µM. For the same compound, the Ki (Carbonic anhydrase 4) was 3.98 µM and the Ki (Carbonic anhydrase 6) was 4.36 µM.
For `Oc1cccc(O)c1`, the Ki (Carbonic anhydrase 3) was 196 µM.
With `Oc1ccccc1O` [1,2-Dihydroxybenzene, XI] the Ki (Carbonic anhydrase 3) was 5.79 µM.
`O=c1c(O)c(-c2ccc(O)c(O)c2)oc2cc(O)cc(O)c12` [2-(3,4-dihydroxyphenyl)-3,5,7-trihydroxy-chromone;hydrate] gave a Ki (Carbonic anhydrase 3) of 3.73 µM.
With `Oc1cc(O)c2c(c1)O[C@H](c1ccc(O)c(O)c1)[C@@H](O)C2` [(+)-Catechin] the Ki (Carbonic anhydrase 3) was 9.71 µM.
`CC(C)(O)[C@@H]1CC[C@](C)([C@H]2[C@@H](O)C[C@@]3(C)C4C[C@H](O[C@@H]5OC(CO)[C@@H](O)C(O)[C@@H]5O)C5C(C)(C)[C@@H](O[C@@H]6OC[C@@H](O)C(O)[C@@H]6O[C@@H]6OC[C@H](O)C(O)[C@@H]6O)CC[C@@]56C[C@@]46CC[C@]23C)O1` (stereo partly drawn) [α-CA inhibitor, 7] gave a Ki (Carbonic anhydrase 1) of 0.94 µM, a Ki (Carbonic anhydrase 2) of 0.47 µM and a Ki (Carbonic anhydrase 3) of 1.38 µM. For the same compound, the Ki (Carbonic anhydrase 4) was 2.41 µM and the Ki (Carbonic anhydrase 6) was 4.71 µM.
`CC(C)(O)[C@@H]1CC[C@](C)([C@H]2[C@@H](O)C[C@@]3(C)C4C[C@H](O[C@@H]5OC(CO)[C@@H](O)C(O)[C@@H]5O)C5C(C)(C)[C@@H](O[C@@H]6OC[C@@H](O)C(O)[C@@H]6O)CC[C@@]56C[C@@]46CC[C@]23C)O1` (stereo partly drawn) [α-CA inhibitor, 8] gave a Ki (Carbonic anhydrase 1) of 1.47 µM, a Ki (Carbonic anhydrase 2) of 0.97 µM and a Ki (Carbonic anhydrase 3) of 1.93 µM. The Ki (Carbonic anhydrase 4) was 2.75 µM and the Ki (Carbonic anhydrase 6) was 6.96 µM.
Compound `CC(C)(O)[C@@H]1CC[C@](C)([C@H]2[C@@H](O)C[C@@]3(C)C4C[C@H](O[C@@H]5OC[C@@H](O)C(O)[C@@H]5O)C5C(C)(C)[C@@H](O[C@@H]6OC[C@@H](O)C(O)[C@@H]6O)CC[C@@]56C[C@@]46CC[C@]23C)O1` (stereo partly drawn) [α-CA inhibitor, 10] has a Ki (Carbonic anhydrase 1) of 2.21 µM, a Ki (Carbonic anhydrase 2) of 1.28 µM and a Ki (Carbonic anhydrase 3) of 2.49 µM. The Ki (Carbonic anhydrase 4) was 4.36 µM and the Ki (Carbonic anhydrase 6) was 9.78 µM.
